# Results published in US20210386985A1, “BIODEGRADABLE MICRONEEDLES FOR TRANSDERMAL THERAPEUTIC AGENT DELIVERY” (THE REGENTS OF THE UNIVERSITY OF CALIFORNIA, priority 2018, published 2021).
# Tested on: melanoma cell line A375
# Test: In vitro anticancer efficacy of the released DOX (MTT and Live/Dead assay)
# Type: cell-based, human
# Conditions: A375 cells, microneedles incubated 1 h
# Procedure: A human melanoma cell line A375 was used as the model to investigate the anticancer efficiency of DOX released from the microneedles 14. After incubating microneedles 14 containing 10 μg of DOX with the plated cells for 1 h, the viability of A375 cells was examined using an MTT assay after 24 h. […] The DOX-induced cell death was further investigated by a Live/Dead assay, where live cells metabolized calcein AM into the green fluorescent calcein, and dead cells with compromised membrane integrity were stained by the red fluorescent dye EthD-1. […] The possible reason was that microneedles 14 with more crosslinking time would release less DOX at the same releasing time (1 h).
# In vitro anticancer efficacy of the released DOX: In vitro cytotoxicity of the released DOX was evaluated using the melanoma cell line A375 as the model. Specifically, A375 cells were plated in 24-well plates (1×10^6 per well) and incubated for 24 h. Microneedles 14 with different crosslinking degrees were added and incubated for 1 h. After that, the microneedles 14 were removed from the wells, and A375 cells were incubated for another 24 h. The effects of DOX on the metabolic activity of A375 cells in vitro were tested with a rapid colorimetric MTT assay. The absorbance of the wells was read at 570 nm with 630 nm as the reference. […]
structure (smiles),measurement,value
"COc1cccc2c1C(=O)c1c(O)c3c(c(O)c1C2=O)C[C@@](O)(C(=O)CO)C[C@@H]3O[C@H]1C[C@H](N)[C@H](O)[C@H](C)O1 [DOX, doxorubicin]",cell death (Live/Dead assay),cell death was observed
